# PubChem BioAssay AID1205 (EPA DSSTox, 2008)
# Active and inactive are the calls of the source.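 How the source made its calls: active means tumour findings in long-term animal cancer tests in more than one sex, species or organ; inactive means no tumour finding and more than one negative test.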
# Assay: DSSTox (CPDBAS) Carcinogenic Potency Database Summary MultiCellCall Results
# Settings: animal carcinogenicity bioassays, multi-cell call summary
# Procedure, shortened: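 Summary call drawn from chronic long-term cancer bioassays in rats, mice, hamsters, dogs and nonhuman primates, using the most positive result per sex-species. Score: multispecies=50, multisex=30, multisite=20, summed for combinations.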
row,SMILES,outcome
1,S=C(SSSSSSC(=S)N1CCCCC1)N1CCCCC1,inactive; multisex inactive
2,CCOc1ccc(NC(C)=O)cc1,active; multisite active; multisex active; multispecies active
3,CN(C)c1ccc(N=NS(=O)(=O)O)cc1,inactive; multisex inactive; multispecies inactive
4,O=C(O)C(Cl)(Cl)Cl,active; multisex active
5,CC[C@H](OC(C)=O)C(C[C@H](C)N(C)C)(c1ccccc1)c1ccccc1,active; multisex active
6,CC(Oc1c(Cl)cccc1Cl)C1=NCCN1 (configuration not stated),inactive; multisex inactive
7,CC(O)CN(CCO)N=O (configuration not stated),active; multisite active
8,CC(C)COC(=O)c1ccc(O)cc1,inactive; multisex inactive
9,Cc1c(N)nc(C)c2c1[nH]c1ccccc12,active; multisex active; multispecies active
10,NNC(=O)c1ccncc1,active; multisite active; multisex active; multispecies active
11,CS(=O)(=O)OCCCNCCCOS(C)(=O)=O,inactive; multisex inactive; multispecies inactive
12,COc1ccc([N+](=O)[O-])cc1N=Nc1c(O)c(C(=O)Nc2cccc([N+](=O)[O-])c2)cc2ccccc12,inactive; multisex inactive; multispecies inactive
13,Nc1ccc(N=Nc2ccccc2)c(N)n1,active; multisite active; multisex active; multispecies active
14,CCCCOC(=O)COc1ccc(Cl)cc1Cl,inactive; multisex inactive
15,FC(Cl)(Cl)Cl,inactive; multisex inactive; multispecies inactive
16,C=CCOc1ccc(CC(=O)O)cc1Cl,inactive; multisex inactive
17,CCCCNC(N)=O,inactive; multisex inactive; multispecies inactive
18,CC(C)(C)c1cc(CO)cc(C(C)(C)C)c1O,inactive; multisex inactive
19,O=C1c2ccccc2C(=O)c2c(O)cccc21,active; multisite active
20,CC(=O)CN(CCO)N=O,active; multisite active; multispecies active
21,CC1CCC(C(C)C)C(O)C1 (configuration not stated),inactive; multisex inactive; multispecies inactive
22,CCCCN(CCCC)N=O,active; multisite active; multispecies active
23,OC[C@H]1O[C@@](CO)(O[C@H]2O[C@H](CO)[C@@H](O)[C@H](O)[C@H]2O)[C@@H](O)[C@@H]1O,inactive; multisex inactive
24,Nc1ncn[nH]1,active; multisite active; multisex active; multispecies active
25,CC/C(=C(/CC)c1ccc(O)cc1)c1ccc(O)cc1,active; multisite active; multisex active; multispecies active
26,O=NN1CCOC1=O,active; multisite active

row,SMILES,outcome
1,S=C=Nc1ccccc1,inactive; multisex inactive
2,C=C(C)C(=O)OC,inactive; multisex inactive; multispecies inactive
3,Oc1cccc2cccnc12,inactive; multisex inactive; multispecies inactive
4,CCOc1ccc2c(c1)C(C)=CC(C)(C)N2,inactive; multisex inactive
5,O=S1(=O)CCCO1,active; multisite active; multisex active
6,CC(C)NCC(O)c1ccc2ccccc2c1 (configuration not stated),inactive; multisex inactive
7,c1ccc2c(c1)[nH]c1ccccc12,active; multisite active; multisex active
8,Cc1ccccc1OCC(O)CNCCn1cc(C)c(=O)[nH]c1=O (configuration not stated),inactive; multisex inactive
9,CCN(C#N)N=O,active; multisex active
10,N#Cc1ccc(C2CCCc3cncn32)cc1 (configuration not stated),inactive; multisex inactive
11,O.O.O.O.O.O.O.O=S(=O)([O-])[O-].[Co+2],active; multisite active; multisex active; multispecies active
12,ClC(Cl)Br,active; multisite active; multisex active; multispecies active
13,Nc1ccccc1C(=O)OC/C=C/c1ccccc1,active; multisite active; multisex active; multispecies active
14,OC[C@@H](O)[C@@H](O)[C@H](O)[C@H](O)CO,inactive; multisex inactive; multispecies inactive
15,NC(=S)Nc1cccc2ccccc12,inactive; multisex inactive
16,O.[Cd+2].[Cl-].[Cl-],inactive; multisex inactive
17,COc1ccc(O)cc1,active; multisex active
18,CO[C@@]12[C@H](COC(N)=O)C3=C(C(=O)C(C)=C(N)C3=O)N1C[C@@H]1N[C@@H]12,active; multisex active
19,C=C1C/C(=C/C)C(=O)O[C@@H]2CCN3CC=C(COC(=O)[C@@]1(O)CO)[C@H]23,active; multisite active; multisex active; multispecies active
20,ClCCl,active; multisite active; multisex active; multispecies active
21,O=S(=O)([O-])[O-].[O]=[V+2],inactive; multisex inactive; multispecies inactive
22,Cn1c(=O)c2[nH]cnc2n(C)c1=O,inactive; multisex inactive; multispecies inactive
23,Cc1ccc(C)c(N)c1,active; multisite active; multisex active; multispecies active
24,CC(=O)OC[C@]12C[C@H](OC(=O)CC(C)C)C(C)=C[C@H]1O[C@@H]1[C@H](O)[C@@H](OC(C)=O)[C@@]2(C)C12CO2 (some centres not stated),active; multisite active
25,[N-]=[N+]=[N-],inactive; multisex inactive
26,CN(C)CCOc1ccc(/C(=C(/CCCl)c2ccccc2)c2ccccc2)cc1,inactive; multisex inactive

row,SMILES,outcome
1,CCC1CO1 (configuration not stated),active; multisite active
2,Cc1ccccc1,active; multisite active; multisex active
3,COc1ccccc1[N+](=O)[O-],active; multisite active; multisex active; multispecies active
4,CCCCCCCCCCCCN=C(N)N,inactive; multisex inactive
5,CCCCNN,active; multisex active
6,ClC(Cl)=C(Cl)Cl,active; multisite active; multisex active; multispecies active
7,Cc1ccc(N=C=O)cc1N=C=O,active; multisite active; multisex active; multispecies active
8,CNc1ncnc2nc[nH]c12,inactive; multisex inactive
9,Nc1nnc(-c2ccc([N+](=O)[O-])o2)s1,active; multisite active
10,CCCCCCN(N=O)C(N)=O,active; multisite active; multisex active
11,C=CCNNCC=C,active; multisex active
12,NNC(N)=S,inactive; multisex inactive; multispecies inactive
13,OC[C@@H](O)[C@H]1O[C@@H]2O[C@H](C(Cl)(Cl)Cl)O[C@@H]2[C@H]1O,inactive; multisex inactive
14,C/C=C/c1ccc(OC)cc1,inactive; multisex inactive
15,Nc1ccc(-c2ccc(N)c(N)c2)cc1N,active; multisite active; multispecies active
16,CCN(CC)CCCNC(=O)Cn1ncc(-c2ccccc2)c1-c1ccccc1,inactive; multisex inactive
17,CN1C(C(=O)Nc2ccccn2)=C(O)c2sc(Cl)cc2S1(=O)=O,inactive; multisex inactive
18,CC(=O)Nc1ccc2c(c1)Cc1ccccc1-2,active; multisite active; multisex active; multispecies active
19,Cc1cc(Cl)ccc1OCC(=O)O,inactive; multisex inactive; multispecies inactive
20,O=C/C=C/O,active; multisite active; multisex active; multispecies active
21,CC(=O)c1ccc(S(=O)(=O)NC(=O)NC2CCCCC2)cc1,inactive; multisex inactive; multispecies inactive
22,O=[N+]([O-])/C=C/c1ccccc1,inactive; multisex inactive; multispecies inactive
23,CCCCCN(CCCCC)N=O,active; multisex active
24,c1ccc2c(c1)Oc1ccccc1O2,inactive; multisex inactive; multispecies inactive
25,CN(CCc1ccccc1)N=O,active; multisite active
26,C=CC(O)c1ccc2c(c1)OCO2 (configuration not stated),active; multisite active; multisex active; multispecies active

row,SMILES,outcome
1,COC(C(=O)O)c1ccccc1 (configuration not stated),inactive; multisex inactive
2,ClC#CCl,active; multisite active; multisex active; multispecies active
3,CC(C)(CCCOc1ccc(OCCCC(C)(C)C(=O)O)c(-c2ccccc2)c1)C(=O)O,active; multisex active
4,Cc1ccc(/C(=C\CN2CCCC2)c2ccccn2)cc1,inactive; multisex inactive; multispecies inactive
5,O=C1CCCCC1,inactive; multisex inactive; multispecies inactive
6,CC[N+](=O)[O-],inactive; multisex inactive
7,OC[P+](CO)(CO)CO,inactive; multisex inactive; multispecies inactive
8,Nc1cc([N+](=O)[O-])ccc1C(=O)O,inactive; multisex inactive; multispecies inactive
9,S=C(SN1CCOCC1)N1CCOCC1,active; multisite active; multisex active
10,F[B-](F)(F)F,inactive; multisex inactive
11,C=CC=O,inactive; multisex inactive; multispecies inactive
12,BrCCBr,active; multisite active; multisex active; multispecies active
13,Cc1c(N(C)C)c(=O)n(-c2ccccc2)n1C,inactive; multisex inactive
14,CN(C)CCC(c1ccc(Cl)cc1)c1ccccn1 (configuration not stated),inactive; multisex inactive; multispecies inactive
15,NCCNc1cccc2ccccc12,inactive; multisex inactive; multispecies inactive
16,O=c1c(CO)c/c(=N/Nc2ccc(S(=O)(=O)O)c3ccccc23)c(=O)/c1=N/Nc1ccc(S(=O)(=O)O)c2ccccc12,inactive; multisex inactive
17,O=[N+]([O-])c1ccccc1,active; multisite active; multisex active; multispecies active
18,OCC(CO)(CBr)CBr,active; multisite active; multisex active; multispecies active
19,ClCC1CO1 (configuration not stated),active; multisex active
20,CCCCOCCO,active; multisite active; multisex active
21,Oc1c(Cl)cc(Cl)cc1Sc1cc(Cl)cc(Cl)c1O,inactive; multisex inactive
22,CC[C@H](C)C(=O)O[C@H]1C[C@@H](C)C=C2C=C[C@H](C)[C@H](CC[C@@H]3C[C@@H](O)CC(=O)O3)[C@H]21,active; multisite active; multisex active
23,O=NN1CCC(=O)NC1=O,active; multisex active
24,OC[C@@H](O)[C@@H](O)[C@H](O)[C@H](O)CO[C@H]1O[C@H](CO)[C@@H](O)[C@H](O)[C@H]1O,inactive; multisex inactive
